The target in one data set is BTK protein (Mus musculus (Mouse), UniProt P35991). The data set is described as follows: Detection of BTK protein degradation in spleen of mice. Format: in vivo. The settings on record: po, 72 h, female ICR mice, 3 consecutive days of intragastric administration, read-out: DD50 value of compounds on BTK protein degradation in spleen of mice. The protocol: Female ICR mice, 6-8 weeks old, were purchased from BEIJING VITAL RIVER LABORATORY ANIMAL TECHNOLOGY CO., LTD, and the experiment was started after 3 days of adaptation. After 3 consecutive days of intragastric administration of different doses of the compound, the spleen of mice was taken, the spleen cells were collected, and RIPA lysis buffer (Beyotime, Cat. P0013B) was added. The cells were lysed on ice for 15 minutes, and centrifuged at 12000 rpm at 4° C. for 10 minutes. The protein sample of the supernatant was collected, and the protein was quantified by using the BCA kit (Beyotime, Cat. P0009), and then the protein was diluted to 0.25 mg/mL. The expressions of BTK (CST, Cat. 8547S) and the internal reference β-actin (CST, Cat. 3700S) were detected using a fully automated western blot quantitative analyzer (Proteinsimple). The expression level of BTK relative to the internal reference was calculated using Compass software, and the DD50 value was calculated using Origen9.2 software according to formula (4). Specifically, the BTKadministration denoted the expression level of BTK in administration groups at different doses, and the BTKvehicle denoted the expression level of BTK in the vehicle control group. BTK %=BTKadministration/BTKvehicle×100 formula (4)

The test system of another data set is SU-DHL-4 cells. The data set is described as follows: Inhibition of cell proliferation, SU-DHL-4 cells (Cell Viability Assay, 72 h). Format: cell-based, human. The following applies: Homo sapiens. The procedure, abridged: (§1)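 RPMI1640 + 10% FBS cultures seeded at 20000/well (SU-DHL-4) or 5000/well (Mino, SU-DHL-6), exposed to compound dilutions in triplicate for 72 h at 37 °C, 5% CO2, DMSO vehicle control. Viability read by luminescent reagent; IC50 from dose-response and Max inhi. % = (1 − T72 treated/T72 vehicle)×100 at top concentration.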

A further data set concerns TMD-8 cells. The data set is described as follows: Inhibition of cell proliferation, TMD-8 cells (Cell Viability Assay, 72 h). It is filed as cell-based. The following applies: Homo sapiens, TMD8. The protocol:
(§2) OCI-LY10 and TMD-8 cells, in the culture medium of RPMI1640+10% FBS, were cultured in an incubator at 37° C. under 5% CO2. Cells were plated in a 96-well plate. Specifically, OCI-LY10 cells were at 10000/well, and TMD-8 cells were at 8000/well, with 90 μL/well. These cells were cultured at 37° C. under 5% CO2 overnight. On the next day, 10 μL of the compounds at different concentrations were added to each well. There were 3 replicate wells for each concentration, and the last column, added with DMSO, was used as a vehicle control group. The cultures were continued for 72 hours at 37° C. under 5% CO2. After 72 hours, 50 μL of detection reagent (Cell Viability Assay, Promega, G7573) was added to each well, and the cultures were uniformly mixed for 2 minutes, and incubated at room temperature for 10 minutes. The fluorescence signal value was measured with an Envision2104 plate reader (PerkinElmer). The inhibition rate was calculated using formula (2), wherein RLUcompound was the readout of the drug treated group, RLUcontrol was the average value of the vehicle control group, and RLUblank was the average value of the cell-free wells. The IC50 value was calculated using GraphPad Prism software. IR (%)=(1−(RLUcompound-RLUblank)/(RLUcontrol-RLUblank))*100% formula (2)

The nature of data set [1]: Pharmacokinetic experiment in rats (i.g. vehicle DMSO/Solutol/PEG-400/SBE-β-CD). Format: in vivo. The following applies: Sprague-Dawley (SD), rat, plasma, po, male SD rats; for bioavailability: i.g. 20 mg/kg (DMSO/Solutol/PEG-400/SBE-β-CD) vs i.v. 5 mg/kg; for AUC(0-t): i.g. 20 mg/kg, vehicle 5% DMSO + 5% Solutol + 30% PEG-400 + 60% (20%SBE-β-CD). The protocol: Objective: In this experiment, a single dose of each test compound was administered to SD rats intravenously and intragastrically, the concentrations of the test compound in plasma of rats were measured, and the pharmacokinetic characteristics and bioavailability of the test compound in rats were evaluated.
Experimental animals: Male SD rats, 200-250 g, 6-8 weeks old, 6 rats/compound. The experimental animals were purchased from CHENGDU DOSSY EXPERIMENTAL ANIMALS CO., LTD.
Experimental method: On the day of the experiment, 6 SD rats were randomly grouped according to their body weight. The animals were fasted with water available for 12 to 14 hours one day before the administration of a test compound, and were fed 4 hours after the administration.
Sampling: Before and after the administration, 0.1 mL of blood was taken from the orbit of the rats under isoflurane anesthesia, and placed in an EDTAK2 centrifuge tube. Centrifugation was carried out at 5000 rpm at 4° C. for 10 min and the plasma was collected.
Time points for plasma collection in G1 group: 0, 5 min, 15 min, 30 min, 1 h, 2 h, 4 h, 6 h, 8 h, and 24 h.
Time points for plasma collection in G2 group: 0, 15 min, 30 min, 1 h, 2 h, 4 h, 6 h, 8 h, and 24 h.
(§3) Before analysis and detection, all samples were stored at −80° C. The samples were analyzed quantitatively by LC-MS/MS.

A further data set concerns SU-DHL-6 cells. Put plainly: Inhibition of cell proliferation, SU-DHL-6 cells (Cell Viability Assay, 72 h). Format: cell-based. The settings on record: Homo sapiens. In short, it runs like this: as §1
Another data set deals with Mino cells. Put plainly: Inhibition of cell proliferation, Mino cells (Cell Viability Assay, 72 h). Format: cell-based, human. The settings on record: Homo sapiens. The procedure, abridged:
as §1

Another data set deals with OCI-LY10 cells. Put plainly: Inhibition of cell proliferation, OCI-LY10 cells (Cell Viability Assay, 72 h). The following applies: Homo sapiens. Format: cell-based. As to the method: as §2
A short description of data set [2]: Pharmacokinetic experiment in rats (i.g. vehicle 0.5% MC). The following applies: Sprague-Dawley (SD), rat, plasma, po, male SD rats. Format: in vivo. In short, it runs like this: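 Male SD rats (200–250 g, 6–8 weeks, n=6 per compound) were dosed once i.v. or intragastrically after a 12–14 h fast and fed 4 h post-dose. Orbital blood was drawn into EDTA-K2 tubes at 0–24 h (from 5 min i.v., from 15 min oral). Plasma was quantified by LC-MS/MS for PK parameters and bioavailability.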

Data set [3] in a line: Pharmacokinetic experiment in mice. Format: in vivo. The settings on record: mouse, plasma, male ICR mice. The protocol: Objective: In this experiment, a single dose of each test compound was administered to ICR mice intravenously and intragastrically, the concentrations of the test compound in plasma of mice were measured, and the pharmacokinetic characteristics and bioavailability of the test compound in mice were evaluated.
Experimental animals: Male ICR mice, 20-25 g, 6-8 weeks old, 24 mice/compound. The experimental animals were purchased from CHENGDU DOSSY EXPERIMENTAL ANIMALS CO., LTD.
Experimental method: On the day of the experiment, 24 ICR mice were randomly grouped according to their body weight. The animals were fasted with water available for 12 to 14 hours one day before the administration of a test compound, and were fed 4 hours after the administration.
Sampling: Before and after the administration, 0.06 ml of blood was taken from the orbit of the mice under isoflurane anesthesia, and placed in an EDTAK2 centrifuge tube. Centrifugation was carried out at 5000 rpm at 4° C. for 10 min and the plasma was collected.
Time points for plasma collection in G1 group: 0, 5 min, 15 min, 30 min, 1 h, 2 h, 4 h, 6 h, 8 h, and 24 h;
Time points for plasma collection in G2 group: 0, 15 min, 30 min, 1 h, 2 h, 4 h, 6 h, 8 h, and 24 h;
as §3

Chain of BTK protein (P35991 whole entry): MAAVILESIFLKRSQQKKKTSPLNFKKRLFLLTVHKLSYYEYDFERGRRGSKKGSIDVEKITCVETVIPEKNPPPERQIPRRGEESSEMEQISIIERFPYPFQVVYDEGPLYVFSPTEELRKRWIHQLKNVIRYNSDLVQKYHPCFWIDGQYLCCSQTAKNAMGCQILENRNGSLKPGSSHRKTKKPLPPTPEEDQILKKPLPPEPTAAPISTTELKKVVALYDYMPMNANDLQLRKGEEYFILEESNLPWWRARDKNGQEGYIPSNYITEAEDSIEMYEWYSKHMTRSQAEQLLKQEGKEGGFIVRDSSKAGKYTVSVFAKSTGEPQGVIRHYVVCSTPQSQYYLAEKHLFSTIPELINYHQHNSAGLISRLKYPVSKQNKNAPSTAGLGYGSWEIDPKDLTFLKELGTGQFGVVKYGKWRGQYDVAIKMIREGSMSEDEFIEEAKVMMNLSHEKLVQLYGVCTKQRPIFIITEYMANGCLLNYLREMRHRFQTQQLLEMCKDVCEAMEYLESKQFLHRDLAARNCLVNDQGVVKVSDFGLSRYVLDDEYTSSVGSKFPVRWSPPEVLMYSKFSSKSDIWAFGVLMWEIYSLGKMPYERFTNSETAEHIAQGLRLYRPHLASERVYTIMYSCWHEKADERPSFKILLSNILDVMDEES

On to `Nc1ncnc2c1c(-c1ccc(Oc3ccccc3)cc1)nn2[C@@H]1CCN(C2CCN(C3CN(c4ccc5c(c4)C(=O)N(C4CCC(=O)NC4=O)C5=O)C3)CC2)C[C@@H]1F` (stereo partly drawn) [Compound 45, 5-(3-((3S,4R)-4-(4-amino-3-(4-phenoxyphenyl)-1H-pyrazolo[3,4-d]pyrimidin-1-yl)-3-fluoro-[1,4′-bipiperidin]-1′-yl)azetidin-1-yl)-2-(2,6-dioxopiperidin-3-yl)isoindoline-1,3-dione], for which, on BTK protein, the ED50 was 1.4 mg/kg. Moreover, the IC50 (usually the concentration at which inhibition is half-maximal) was 110 nM with SU-DHL-4 cells; 16 nM in the data set with TMD-8 cells; 125 nM in the data set on SU-DHL-6 cells; 9.6 nM in the data set on Mino cells; 3 nM with OCI-LY10 cells. Moreover, the bioavailability – broadly, the share of a dose that reaches the circulation, judged against a reference dose that is usually intravenous – in data set [1] turned out to be 19.7 ± 8.5%. Further, the AUC(0-t) in data set [1] was 3440 ± 1490 ng·h/mL.
As for `Nc1ncnc2c1c(-c1ccc(Oc3ccccc3)cc1)nn2[C@@H]1CCN(C2CCN(C3CN(c4ccc5c(c4)C(=O)N(C4CCC(=O)NC4=O)C5=O)C3)CC2)C[C@H]1F` (stereo partly drawn) [Compound 40, 5-(3-((3R,4R)-4-(4-amino-3-(4-phenoxyphenyl)-1H-pyrazolo[3,4-d]pyrimidin-1-yl)-3-fluoro-[1,4′-bipiperidin]-1′-yl)azetidin-1-yl)-2-(2,6-dioxopiperidin-3-yl)isoindoline-1,3-dione], the ED50 on BTK protein was 2.1 mg/kg. Further, the IC50 was found to be 74 nM with SU-DHL-4 cells; 12 nM with TMD-8 cells; 54 nM in the data set on SU-DHL-6 cells; 7.3 nM in the data set on Mino cells; 3 nM in the data set on OCI-LY10 cells. The compound also had a bioavailability in data set [1] of 17.4 ± 4%. For the same compound, the AUC(0-t) in data set [1] was found to be 5420 ± 1260 ng·h/mL.
With `Nc1ncnc2c1c(-c1ccc(Oc3ccccc3)cc1)nn2C1CCN(C2CN(C3CN(c4ccc5c(c4)C(=O)N(C4CCC(=O)NC4=O)C5=O)C3)C2)CC1` (centres unmarked) [Compound 17, 5-[3-[3-[4-[4-amino-3-(4-phenoxyphenyl)pyrazolo[3,4-d]pyrimidin-1-yl]-1-piperidyl]azetidin-1-yl]azetidin-1-yl]-2-(2,6-dioxo-3-piperidyl)isoindoline-1,3-dione], the bioavailability was found to be 6.57 ± 0.77% in data set [2] (i.g. 20 mg/kg (0.5% MC) vs i.v. 5 mg/kg) and 10.8% in [3] (oral, i.g. 10 mg/kg vs i.v. 5 mg/kg). The AUC(0-t) in [2] (i.g. 20 mg/kg, vehicle 0.5% MC, read-out: AUC0-t) was 2340 ± 274 ng·h/mL; in data set [3] (po, i.g. 10 mg/kg, vehicle 0.5% MC), 2430 ng·h/mL. In addition, the ED50 on BTK protein came out at 3.8 mg/kg. Further, the IC50 in the data set with SU-DHL-4 cells turned out to be 367 nM; in the data set on TMD-8 cells, 22 nM; in the data set on SU-DHL-6 cells, 744 nM; with Mino cells, 20 nM; in the data set on OCI-LY10 cells, 5 nM.

The values are drawn from US11542266B1, “Substituted piperidines as BTK inhibitors” (HAISCO PHARMACEUTICALS PTE. LTD., priority 2019, dated 2023).
